# Experimental data from patent publication US12331040B2 (Karyopharm Therapeutics Inc., priority 2013, dated 2025).
# Read-outs that look alike come from different tables or passages of the source.
# Assays:
# Test in all cases: MTT cell proliferation assay
# Type in all cases: cell-based
# MS751 cells = settings: Homo sapiens, MS751, MS751 cells, approximately 64-72 hours incubation
# Procedure, shortened: (§1)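 5,000-10,000 cells/well, overnight attach; 8 conc., 1 nM–30 μM; MTT ~4 h; formazan solubilized, OD 490 nm; % inhibition = (1−(ODo/OD))×100 vs neg. control; mostly duplicate, mean±SE.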
# 3T3 cells = settings: Mus musculus, NIH3T3, approximately 64-72 hours incubation
# Procedure, shortened: as §1
# Z138 cells = settings: Homo sapiens, Z-138, Z138 cells, approximately 64-72 hours incubation
# Procedure, shortened: as §1
# [1] = read-out: MTT Assay IC50 MS-751
# [2] = read-out: MTT Assay IC50, MS-751
# [3] = read-out: MTT Assay IC50, Z-138
SMILES,IC50 (MS751 cells; [1]) [µM],IC50 (3T3 cells; read-out: MTT Assay IC50 3T3) [µM],IC50 (Z138 cells; read-out: MTT Assay IC50 Z-138) [µM],IC50 (MS751 cells; [2]) [µM],"IC50 (3T3 cells; read-out: MTT Assay IC50, 3T3) [µM]",IC50 (Z138 cells; [3]) [µM]
"O=C(/C=C/c1ccc(C(F)(F)F)nc1)NCc1cc2cc(-c3ccc(C(=O)N4CCOCC4)cc3)cc(Cl)c2o1 [Compound 536, (E)-N-((7-Chloro-5-(4-(morpholine-4-carbonyl)phenyl)benzofuran-2-yl)methyl)-3-(6-(trifluoromethyl)pyridin-3-yl)acrylamide]",> 10,> 10,5 to 10,–,–,–
"Nc1ccc(/C=C/C(=O)NCc2cc3cc(-c4ccc(C(=O)N5CCC(F)(F)CC5)cc4)cc(-c4ccc(Cl)cc4F)c3o2)cn1 [Compound 739, (E)-3-(6-aminopyridin-3-yl)-N-((7-(4-chloro-2-fluorophenyl)-5-(4-(4,4-difluoropiperidine-1-carbonyl)phenyl)benzofuran-2-yl)methyl)acrylamide]",–,–,–,0.1 to 5,> 10,0.1 to 5
"Nc1ccc(/C=C/C(=O)NCc2cc3cc(-c4cc(F)c(C(=O)N5CCOCC5)cc4F)cc(Cl)c3o2)cn1 [Compound 547, (E)-3-(6-aminopyridin-3-yl)-N-((7-chloro-5-(2,5-difluoro-4-(morpholine-4-carbonyl)phenyl)benzofuran-2-yl)methyl)acrylamide]",0.1 to 5,> 10,0.1 to 5,–,–,–
"CC1(C)CN(C(=O)c2ccc(-c3cc(C(F)(F)F)c4oc(CNC(=O)/C=C/c5ccc(N)nc5)cc4c3)cc2)C1 [Compound 526, (E)-3-(6-aminopyridin-3-yl)-N-((5-(4-(3,3-dimethylazetidine-1-carbonyl)phenyl)-7-(trifluoromethyl)benzofuran-2-yl)methyl)acrylamide]",0.1 to 5,> 10,0.1 to 5,–,–,–
"Nc1ccc(/C=C/C(=O)NCc2cc3cc(-c4ccc(C(=O)N5CC6CCC(C5)O6)cn4)cc(C(F)(F)F)c3o2)cn1 [Compound 632, (E)-N-((5-(5-(8-oxa-3-azabicyclo[3.2.1]octane-3-carbonyl)pyridin-2-yl)-7-(trifluoromethyl)benzofuran-2-yl)methyl)-3-(6-aminopyridin-3-yl)acrylamide]",0.1 to 5,> 10,0.1 to 5,–,–,–
"Nc1ccc(/C=C/C(=O)NCc2cc3cc(-c4ccc(C(=O)N5CC[C@H](F)C5)cn4)cc(C(F)(F)F)c3o2)cn1 [Compound 570, (S,E)-3-(6-aminopyridin-3-yl)-N-((5-(5-(3-fluoropyrrolidine-1-carbonyl)pyridin-2-yl)-7-(trifluoromethyl)benzofuran-2-yl)methyl)acrylamide]",0.1 to 5,> 10,< 0.1,–,–,–
"CC1(C)CN(C(=O)c2ccc(-c3cc(Cl)c4oc(CNC(=O)/C=C/c5ccc(N)nc5)cc4c3)cc2)C1 [Compound 529, (E)-3-(6-aminopyridin-3-yl)-N-((7-chloro-5-(4-(3,3-dimethylazetidine-1-carbonyl)phenyl)benzofuran-2-yl)methyl)acrylamide]",5 to 10,> 10,0.1 to 5,–,–,–
"Nc1ccc(/C=C/C(=O)NCc2cc3cc(-c4ccc(C(=O)N5CC6(C5)CC(F)(F)C6)cn4)cc(C(F)(F)F)c3o2)cn1 [Compound 661, (E)-3-(6-aminopyridin-3-yl)-N-((5-(5-(6,6-difluoro-2-azaspiro[3.3]heptane-2-carbonyl)pyridin-2-yl)-7-(trifluoromethyl)benzofuran-2-yl)methyl)acrylamide]",–,–,–,0.1 to 5,> 10,0.1 to 5
"Nc1ccc(/C=C/C(=O)NCc2cc3cc(-c4ccc(S(=O)(=O)N5CC[C@H](F)C5)cc4)cc(Cl)c3o2)cn1 [Compound 643, (S,E)-3-(6-aminopyridin-3-yl)-N-((7-chloro-5-(4-(3-fluoropyrrolidin-1-ylsulfonyl)phenyl)benzofuran-2-yl)methyl)acrylamide]",0.1 to 5,> 10,0.1 to 5,–,–,–
"Nc1ccc(/C=C/C(=O)NCc2cc3cc(-c4ccc(CN5CCC(F)(F)CC5)cn4)cc(C(F)(F)F)c3o2)cn1 [Compound 675, (E)-3-(6-aminopyridin-3-yl)-N-((5-(5-((4,4-difluoropiperidin-1-yl)methyl)pyridin-2-yl)-7-(trifluoromethyl)benzofuran-2-yl)methyl)acrylamide]",–,–,–,> 10,> 10,> 10
"Nc1ccc(/C=C/C(=O)NCc2cc3cc(-c4ccc(C(=O)N5CCC(F)(F)C5)cn4)cc(C(F)(F)F)c3o2)cn1 [Compound 612, (E)-3-(6-aminopyridin-3-yl)-N-((5-(5-(3,3-difluoropyrrolidine-1-carbonyl)pyridin-2-yl)-7-(trifluoromethyl)benzofuran-2-yl)methyl)acrylamide]",0.1 to 5,> 10,< 0.1,–,–,–
"Nc1ccc(/C=C/C(=O)NCc2cc3cc(-c4ccc(C(=O)NNc5cnccn5)cc4)cc(C(F)(F)F)c3o2)cn1 [Compound 519, (E)-3-(6-aminopyridin-3-yl)-N-((5-(4-(2-(pyrazin-2-yl)hydrazinecarbonyl)phenyl)-7-(trifluoromethyl)benzofuran-2-yl)methyl)acrylamide]",0.1 to 5,> 10,0.1 to 5,–,–,–
"Nc1ccc(/C=C/C(=O)NCc2cc3c(-c4ccc(C(=O)N5CCC(F)(F)CC5)cc4)cc(Cl)cc3o2)cn1 [Compound 713, (E)-3-(6-aminopyridin-3-yl)-N-((6-chloro-4-(4-(4,4-difluoropiperidine-1-carbonyl)phenyl)benzofuran-2-yl)methyl)acrylamide]",–,–,–,0.1 to 5,5 to 10,0.1 to 5
"Nc1ccc(/C=C/C(=O)NCc2cc3cc(C(F)(F)F)cc(-c4ccc(C(=O)N5CCC(F)(F)CC5)cc4)c3o2)cn1 [Compound 702, (E)-3-(6-aminopyridin-3-yl)-N-((7-(4-(4,4-difluoropiperidine-1-carbonyl)phenyl)-5-(trifluoromethyl)benzofuran-2-yl)methyl)acrylamide]",–,–,–,5 to 10,> 10,0.1 to 5
"CC1(C)CN(C(=O)c2ccc(-c3cc(C(F)(F)F)c4oc(CNC(=O)/C=C/c5ccc(N)nc5)cc4c3)cc2)CCN1 [Compound 572, (E)-3-(6-aminopyridin-3-yl)-N-((5-(4-(3,3-dimethylpiperazine-1-carbonyl)phenyl)-7-(trifluoromethyl)benzofuran-2-yl)methyl)acrylamide]",< 0.1,0.1 to 5,< 0.1,–,–,–
"Nc1ccc(/C=C/C(=O)NCc2cc3cc(-c4ccc(C(=O)N5CCC(F)(F)CC5)cn4)c(F)c(F)c3o2)cn1 [Compound 681, (E)-3-(6-aminopyridin-3-yl)-N-((5-(5-(4,4-difluoropiperidine-1-carbonyl)pyridin-2-yl)-6,7-difluorobenzofuran-2-yl)methyl)acrylamide]",–,–,–,> 10,> 10,5 to 10
"COc1cc(-c2ccc(C(=O)N3CCOCC3)cc2)cc2cc(CNC(=O)/C=C/c3ccc(N)nc3)oc12 [Compound 592, (E)-3-(6-aminopyridin-3-yl)-N-((7-methoxy-5-(4-(morpholine-4-carbonyl)phenyl)benzofuran-2-yl)methyl)acrylamide]",0.1 to 5,> 10,< 0.1,–,–,–
"COc1cc(-c2ccc(C(=O)N3CCNCC3)cn2)cc2cc(CNC(=O)/C=C/c3ccc(N)nc3)oc12 [Compound 641, (E)-3-(6-aminopyridin-3-yl)-N-((7-methoxy-5-(5-(piperazine-1-carbonyl)pyridin-2-yl)benzofuran-2-yl)methyl)acrylamide]",< 0.1,> 10,< 0.1,–,–,–
"Nc1ccc(/C=C/C(=O)NCc2cc3cc(-c4ccc(Oc5ccc(F)cc5)cn4)cc(-c4ccc(F)cc4)c3o2)cn1 [Compound 745, (E)-3-(6-aminopyridin-3-yl)-N-((5-(5-(4-fluorophenoxy)pyridin-2-yl)-7-(4-fluorophenyl)benzofuran-2-yl)methyl)acrylamide]",–,–,–,0.1 to 5,> 10,0.1 to 5
"Nc1ccc(/C=C/C(=O)NCc2cc3cc(-c4ccc(S(=O)(=O)N5CCOCC5)cc4)cc(C(F)(F)F)c3o2)cn1 [Compound 531, (E)-3-(6-aminopyridin-3-yl)-N-((5-(4-(morpholinosulfonyl)phenyl)-7-(trifluoromethyl)benzofuran-2-yl)methyl)acrylamide]",< 0.1,0.1 to 5,0.1 to 5,–,–,–
"Nc1ccc(/C=C/C(=O)NCc2cc3cc(-c4ccc(C(=O)N5CC[C@H](Cl)C5)cc4)cc(C(F)(F)F)c3o2)cn1 [Compound 610, (S,E)-3-(6-aminopyridin-3-yl)-N-((5-(4-(3-chloropyrrolidine-1-carbonyl)phenyl)-7-(trifluoromethyl)benzofuran-2-yl)methyl)acrylamide]",0.1 to 5,> 10,0.1 to 5,–,–,–
"Nc1ccc(/C=C/C(=O)NCc2cc3cc(-c4ccc(C(=O)N5CCC(F)(F)CC5)cn4)cc(-c4cc5ccccc5o4)c3o2)cn1 [Compound 668, (E)-3-(6-aminopyridin-3-yl)-N-((5′-(5-(4,4-difluoropiperidine-1-carbonyl)pyridin-2-yl)-2,7′-bibenzofuran-2′-yl)methyl)acrylamide]",–,–,–,< 0.1,0.1 to 5,< 0.1
"CC1(F)CN(C(=O)c2ccc(-c3cc(C(F)(F)F)c4oc(CNC(=O)/C=C/c5ccc(N)nc5)cc4c3)cc2)C1 [Compound 587, (E)-3-(6-aminopyridin-3-yl)-N-((5-(4-(3-fluoro-3-methylazetidine-1-carbonyl)phenyl)-7-(trifluoromethyl)benzofuran-2-yl)methyl)acrylamide]",0.1 to 5,> 10,0.1 to 5,–,–,–
